Measurements taken from patent publication US6355630B1, “Estra-1,3,5(10)-triene-7α-thioethers” (priority 1997, dated 2002).
pEC50, pIC50: −log10 of the molar value. “And” between values parts separate entries of the source, which are not always exact repeats. Equal values may be shown once. Read-outs that look alike come from different tables or passages of the source.

Assays:
human estrogen receptor = target: T1, human estrogen receptor (Homo sapiens, UniProt P03372); assay: In vitro estrogen receptor binding test procedure ([3H]-17β-estradiol competition); conditions: for Receptor IC50: displacement of [3H]17β-estradiol, CHO cell cytosol ER preparation; for Competition for the human estrogen receptor: in words, compounds with 17β-acetate
T1 construct: expressed in transfected cells; host or cells: Chinese Hamster ovary (CHO) cells; ribosome-free cytosol
T1 sequence (P03372 1-595): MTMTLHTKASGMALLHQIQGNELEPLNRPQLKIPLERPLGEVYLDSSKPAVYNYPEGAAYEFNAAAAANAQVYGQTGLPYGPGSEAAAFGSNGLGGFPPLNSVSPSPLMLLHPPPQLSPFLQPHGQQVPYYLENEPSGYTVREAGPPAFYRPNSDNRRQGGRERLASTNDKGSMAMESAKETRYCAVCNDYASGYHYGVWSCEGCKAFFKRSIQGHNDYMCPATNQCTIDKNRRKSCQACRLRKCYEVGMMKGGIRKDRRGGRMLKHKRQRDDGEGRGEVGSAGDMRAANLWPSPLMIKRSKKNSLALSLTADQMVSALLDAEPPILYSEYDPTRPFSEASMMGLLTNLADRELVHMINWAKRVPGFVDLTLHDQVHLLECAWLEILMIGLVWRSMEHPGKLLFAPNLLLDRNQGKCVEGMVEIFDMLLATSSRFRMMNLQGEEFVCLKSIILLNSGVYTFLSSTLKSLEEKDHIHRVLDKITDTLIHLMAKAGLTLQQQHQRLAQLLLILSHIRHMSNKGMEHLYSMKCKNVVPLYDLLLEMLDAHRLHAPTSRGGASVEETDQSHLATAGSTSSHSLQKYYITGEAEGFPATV
Description: In vitro Estrogen Receptor Binding Test Procedure
Chinese Hamster ovary (CHO) cells overexpressing the estrogen receptor were grown in […] dishes in DMEM+10% dextran coated charcoal, stripped fetal bovine serum. The plates were washed twice with PBS and once with 10 mM Tris-HCl, pH 7.4, 1 mM EDTA. Cells were harvested by scraping the surface and then the cell suspension was placed on ice. Cells were disrupted with a hand-held motorized tissue grinder using two, 10-second bursts. The crude preparation was centrifuged at 12,000 g for 20 minutes followed by a 60 minute spin at 100,000 G to produce a ribosome free cytosol. The cytosol was then frozen and stored at −80° C. Protein concentration of the cytosol was estimated using the BCA assay with reference standard protein.
Binding Test Procedure Conditions
100 uG/100 uL of the receptor preparation was aliquoted per well. […] The plate was incubated at room temperature for 2.5 h. At the end of this incubation period 150 uL of ice-cold dextran coated charcoal (5% activated charcoal coated with 0.05% 69K dextran) was added to each well and the plate was immediately centrifuged at 99 g for 5 minutes at 4° C. 200 uL of the supernatant solution was then removed for scintillation counting. Samples were counted to 2% or 10 minutes, whichever occurs first. […] Also, wells containing radioactivity but no cytosol were processed with charcoal to estimate unremovable DPM of [^3H] […] 96-well plates were used because they have proven to bind the least amount of estradiol.
Counts per minute (CPM) of radioactivity were automatically converted to disintegrated per minute (DPM) by the Beckman LS 7500 Scintillation Counter using a set of quenched standards to generate a H# for each sample. To calculate the % of estradiol binding in the presence of 100 or 500 fold competitor the following formula was applied:
((DPM sample−DPM not removed by charcoal/(DPM estradiol−DPM not removed by charcoal))×100%=% of estradiol binding
For the generation of IC50 curves, % binding is plotted vs compound. […] Values are reported as IC50 values. […] For a description of these methods, see Hulme, E. C., ed. 1992. Receptor-Ligand Interactions: A Practical Approach. IRL Press, New York.(see especially chapter 8).
Compounds were tested for their ability to displace estradiol in a human ER-receptor preparation as described above.

Ishikawa uterine cells = assay: Ishikawa cell alkaline phosphatase test procedure; format: cell-based, human; conditions: for Alkaline phosphatase activity, percent of response related to 1 nM 17β-estradiol: 48 h; for pEC50: reference standards, read-out: ED50, estrogenic activity by the alkaline phosphatase method
Description: Ishikawa Cell Alkaline Phosphatase Test Procedure
Cell Maintenance and Treatment
Ishikawa cells were maintained in DMEM/F12 (50%:50%) containing phenol red+10% fetal bovine serum and the medium was supplemented with 2 mM Glutamax, 1% Pen/Strap and 1 mM sodium pyruvate. Five days prior to the beginning of each evaluation (treatment of cells) the medium was changed to phenol red-free DMEM/F12+10% dextran coated charcoal stripped serum. On the day before treatment, cells were harvested using 0.5% trypsin/EDTA and plated at a density of 5×10^4 cells/well in 96-well tissue culture plates. […] Cells were treated for 48 h prior to assay. […] Sample population for at each dose was n=8.
Alkaline Phosphatase Test Procedure
At the end of 48 h the media was aspirated and cells were washed three times with phosphate buffered saline (PBS); 50 μL of lysis buffer (0.1 M Tris-HCl, pH 9.8, 0.2% Triton X-100) was added to each well. Plates were placed at −80° C. for a minimum of 15 minutes. Plates were thawed at 37° C. followed by the addition of 150 μL of 0.1 M Tris-HCl, pH 9.8, containing 4 mM para-nitrophenylphosphate (pNPP) to each well (final concentration, 3 mM pNPP).
Absorbance and slope calculations were made using the KineticCalc Application program (Bio-Tek Instruments, Inc., Winooski, Vt.). Results are expressed as the mean +/−S.D. of the rate of enzyme reaction (slope) averaged over the linear portion of the kinetic reaction curve (optical density readings every 5 minutes for 30 minutes absorbance reading).
The four compounds were used as reference standards:
A description of these methods is described by Holinka, C. F., Hata, H., Kuramoto, H. and Gurpide, E. (1986) Effects of steroid hormones and antisteroids on alkaline phosphatase activity in human endometrial cancer cells (Ishikawa Line). Cancer Research, 46:2771-2774, and by Littlefield, B. A., Gurpide, E., Markiewicz, L., McKinley, B. and Hochberg, R. B. (1990) A simple and sensitive microtiter plate estrogen bioassay based on stimulation alkaline phosphatase in Ishikawa cells; Estrogen action of D5 adrenal steroids. Endocrinology, 6:2757-2762.

rat uterus = assay: Rat uterotrophic/antiuterotrophic test procedure; format: in vivo; conditions: 1 ug 17β-estradiol, daily ip, 4-day immature rat
Description: Rat Uterotrophic/Antiuterotrophic Test Procedure
The estrogenic and antiestrogenic properties of the compounds were determined in a 4-day immature rat uterotrophic assay (as described previously by L. J. Black and R. L. Goode, Life Sciences, 26, 1453 (1980)). Immature Sprague-Dawley rats (female, 18 days old) were tested in groups of six. […] On day 4 the animals were sacrificed by CO2 asphyxiation and their uteri were removed and stripped of excess lipid, any fluid removed and the wet weight determined. A small section of one horn was submitted for histology and the remainder used to isolate total RNA in order to evaluate complement component 3 gene expression.
Representative compounds of this invention were evaluated in the rat uterotrophic/antiuterotrophic assay to determine their in vivo effects on the rat uterus.

[1] = 1 uM compound + 1 nM E2, antagonist mode

`C[C@]12CC[C@@H]3c4ccc(O)cc4[C@@H](O)[C@@H](Sc4ccc(Br)cc4)[C@H]3[C@@H]1CC[C@@H]2O` [Example 7, (6α,7α,17β) 7-(4-Bromophenyl)thio-estra-1,3,5(10)-triene-3,6,17-triol] was tested, and the pIC50 (human estrogen receptor) was 6.10, the “Alkaline phosphatase activity, percent of response related to 1 nM 17β-estradiol” value (shortened to “Alkaline phosphatase activity, percent”) (Ishikawa uterine cells; 0.01 uM compound, agonist mode) was 46% and the “Alkaline phosphatase activity, percent” value (Ishikawa uterine cells; 0.1 uM compound, agonist mode) was 58%. For the same molecule, the “Alkaline phosphatase activity, percent” value (Ishikawa uterine cells; [1]) was 98% and the “Alkaline phosphatase activity, percent” value (Ishikawa uterine cells; 1 uM compound, agonist mode) was 66%.
`C[C@]12CC[C@@H]3c4ccc(O)cc4CC[C@H]3[C@@H]1CC[C@H]2O` [17α-estradiol, reference compound] gave a pEC50 (Ishikawa uterine cells) of 8.85.
With `CC(=O)O[C@H]1CC[C@H]2[C@@H]3[C@H](Sc4ccc(O)cc4)C(=O)c4cc(O)ccc4[C@H]3CC[C@]12C` [Example 1, (7α,17β) 17-Acetoxy-3-hydroxy-7-(4-hydroxyphenyl)thio-estra-1,3,5(10)-triene-6-one] the “Alkaline phosphatase activity, percent” value (Ishikawa uterine cells; 0.01 uM compound, agonist mode) was 7%, the “Alkaline phosphatase activity, percent” value (Ishikawa uterine cells; 0.1 uM compound, agonist mode) was 9% and the “Alkaline phosphatase activity, percent” value (Ishikawa uterine cells; [1]) was 76%. The “Alkaline phosphatase activity, percent” value (Ishikawa uterine cells; 1 uM compound, agonist mode) was 29%.
`CC12CCC3c4ccc(O)cc4CC(Sc4ccc(-c5ccc(C=O)cc5)cc4)C3C1CCC2O` (stereo not drawn) [Example 12, (7α,17β) 7-(4-(4′-Formylbiphenyl)]thio-estra-1,3,5(10)-triene-3,17-diol] was tested, and the pIC50 (human estrogen receptor; read-out: Receptor IC50) was 6.52, the “Alkaline phosphatase activity, percent” value (Ishikawa uterine cells; 0.01 uM compound, agonist mode) was 17% and the “Alkaline phosphatase activity, percent” value (Ishikawa uterine cells; 0.1 uM compound, agonist mode) was 67%. The “Alkaline phosphatase activity, percent” value (Ishikawa uterine cells; [1]) was 92% and the “Alkaline phosphatase activity, percent” value (Ishikawa uterine cells; 1 uM compound, agonist mode) was 89%.
In the case of `COc1ccc2c(c1)CC(Sc1ccc(OCCN3CCCCC3)cc1)C1C2CCC2(C)C(OC(C)=O)CCC12` (stereo not drawn) [Example 14, (7α,17β) 3-Methoxy-7-{4-[2-(piperdin-1-yl)]ethoxyphenyl}thio-estra-1,3,5(10)-triene-17-ol-17-acetate], the “Receptor IC50” value (human estrogen receptor) was “No Binding”, the “Competition for the human estrogen receptor” value (human estrogen receptor) was “competed less effectively” and the “Alkaline phosphatase activity, percent” value (Ishikawa uterine cells; 0.01 uM compound, agonist mode) was 2%. For the same molecule, the “Alkaline phosphatase activity, percent” value (Ishikawa uterine cells; 0.1 uM compound, agonist mode) was 3%, the “Alkaline phosphatase activity, percent” value (Ishikawa uterine cells; [1]) was 105% and the “Alkaline phosphatase activity, percent” value (Ishikawa uterine cells; 1 uM compound, agonist mode) was 39%.
Work on `C[C@]12CC[C@@H]3c4ccc(O)cc4CC[C@H]3[C@@H]1C[C@@H](O)[C@@H]2O` [estriol, reference compound] yielded a pEC50 (Ishikawa uterine cells; Homo sapiens, Ishikawa) of 9.89.
With `COC(=O)C=Cc1ccc(S[C@@H]2Cc3cc(O)ccc3[C@H]3CC[C@]4(C)[C@@H](OC(C)=O)CC[C@H]4[C@@H]32)cc1` [Example 9, (7α,17β) 7-{4-[2-(Methoxycarbonyl)-ethenyl]phenyl}thio-estra-1,3,5(10)-triene-3,17-diol-17-acetate] the “Receptor IC50” value (human estrogen receptor) was “No Binding”, the “Competition for the human estrogen receptor” value (human estrogen receptor) was “competed less effectively” and the “Alkaline phosphatase activity, percent” value (Ishikawa uterine cells; 0.01 uM compound, agonist mode) was 1%. For the same molecule, the “Alkaline phosphatase activity, percent” value (Ishikawa uterine cells; 0.1 uM compound, agonist mode) was 33%, the “Alkaline phosphatase activity, percent” value (Ishikawa uterine cells; [1]) was 59% and the “Alkaline phosphatase activity, percent” value (Ishikawa uterine cells; 1 uM compound, agonist mode) was 61%.
With `C[C@]12CC[C@@H]3c4ccc(O)cc4CC[C@H]3[C@@H]1CC[C@@H]2O` [17β-estradiol, reference compound] the pEC50 (Ishikawa uterine cells; Homo sapiens, Ishikawa) was 10.52 and the Uterine wet weight (rat uterus) was 87.6 mg and 82.1 mg and 92.6 mg and 83.8 mg and 94.6 mg.
In the case of `CC(=O)O[C@H]1CC[C@H]2[C@@H]3[C@H](Sc4ccc(Br)cc4)C(=O)c4cc(O)ccc4[C@H]3CC[C@]12C` [Example 5, (7α,17β) 17-Acetoxy-7-(4-bromophenyl)thio-3-hydroxy-estra-1,3,5(10)-trien-6-one], the “Alkaline phosphatase activity, percent” value (Ishikawa uterine cells; 0.01 uM compound, agonist mode) was 58%, the “Alkaline phosphatase activity, percent” value (Ishikawa uterine cells; 0.1 uM compound, agonist mode) was 108% and the “Alkaline phosphatase activity, percent” value (Ishikawa uterine cells; [1]) was 106%. For the same molecule, the “Alkaline phosphatase activity, percent” value (Ishikawa uterine cells; 1 uM compound, agonist mode) was 104% and the “Behaviour in the uterine cell line (agonist/antagonist)” value (Ishikawa uterine cells; in words, from Table 2) was “fully efficacious agonists”.
With `COc1ccc2c(c1)CC(Sc1ccc(OCCN3CCCCC3)cc1)C1C2CCC2(C)C(O)CCC12` (stereo not drawn) [Example 15, (7α,17β) 3-Methoxy-7-{4-[2-(piperdin-1-yl)]ethoxyphenyl}thio-estra-1,3,5(10)-triene-17-ol] the “Alkaline phosphatase activity, percent” value (Ishikawa uterine cells; 0.01 uM compound, agonist mode) was 0%, the “Alkaline phosphatase activity, percent” value (Ishikawa uterine cells; 0.1 uM compound, agonist mode) was 0% and the “Alkaline phosphatase activity, percent” value (Ishikawa uterine cells; [1]) was 69%. For the same molecule, the “Alkaline phosphatase activity, percent” value (Ishikawa uterine cells; 1 uM compound, agonist mode) was 22%.
`C[C@]12CC[C@@H]3c4ccc(O)cc4CC[C@H]3[C@@H]1CCC2=O` [estrone, reference compound] was tested, and the pEC50 (Ishikawa uterine cells; Homo sapiens, Ishikawa) was 9.44.
In the case of `CN(C)C(=O)/C=C/c1ccc(S[C@@H]2Cc3cc(O)ccc3[C@H]3CC[C@]4(C)[C@@H](O)CC[C@H]4[C@@H]32)cc1` [Example 10, (7α,17β) 7-{4-[(E)-2-(N,N-Dimethylcarbamoyl)-ethenyl]phenyl}thio-estra-1,3,5(10)-triene-3,17-diol], the “Alkaline phosphatase activity, percent” value (Ishikawa uterine cells; 0.01 uM compound, agonist mode) was 0%, the “Alkaline phosphatase activity, percent” value (Ishikawa uterine cells; 0.1 uM compound, agonist mode) was 12% and the “Alkaline phosphatase activity, percent” value (Ishikawa uterine cells; [1]) was 57%. For the same molecule, the “Alkaline phosphatase activity, percent” value (Ishikawa uterine cells; 1 uM compound, agonist mode) was 28%.
